For one test, the target named is T1, histamine (H1) receptor (Cavia porcellus, UniProt P31389).
T1 construct: isolated smooth muscle of the guinea-pig ileum; from tissue; host or cells: isolated ileum segments of Dunkin Hartley guinea-pigs
Briefly: Antihistamine (H1) effect: inhibition of histamine-induced contractions of isolated guinea-pig ileum in vitro. As to conditions: histamine 5 × 10^-6 mol/l, test substance 10^-6 mol/l. It is filed as cell-based, guinea-pig (Dunkin Hartley). The gist of the method:
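Dunkin Hartley guinea-pig ileum segments (300-500 g animals) in Krebs-Henseleit, pH 7.4, 5% CO2/95% O2, 1 g tension, isotonic recording. Compound at 10^-6 mol/l for 30 s before histamine 5×10^-6 mol/l; contraction measured over 30 s, repeated 10 min after washout, expressed as % inhibition.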

The next test addresses T2, cyclooxygenase (Mus musculus, UniProt P22437).
T2 construct: A cell suspension containing peritoneal cells of male mice 8-10 weeks old was obtained; endogenous in cells; host or cells: mouse peritoneal macrophages (male mice 8-10 weeks old), zymosan-stimulated
T2 sequence (P22437 27-602): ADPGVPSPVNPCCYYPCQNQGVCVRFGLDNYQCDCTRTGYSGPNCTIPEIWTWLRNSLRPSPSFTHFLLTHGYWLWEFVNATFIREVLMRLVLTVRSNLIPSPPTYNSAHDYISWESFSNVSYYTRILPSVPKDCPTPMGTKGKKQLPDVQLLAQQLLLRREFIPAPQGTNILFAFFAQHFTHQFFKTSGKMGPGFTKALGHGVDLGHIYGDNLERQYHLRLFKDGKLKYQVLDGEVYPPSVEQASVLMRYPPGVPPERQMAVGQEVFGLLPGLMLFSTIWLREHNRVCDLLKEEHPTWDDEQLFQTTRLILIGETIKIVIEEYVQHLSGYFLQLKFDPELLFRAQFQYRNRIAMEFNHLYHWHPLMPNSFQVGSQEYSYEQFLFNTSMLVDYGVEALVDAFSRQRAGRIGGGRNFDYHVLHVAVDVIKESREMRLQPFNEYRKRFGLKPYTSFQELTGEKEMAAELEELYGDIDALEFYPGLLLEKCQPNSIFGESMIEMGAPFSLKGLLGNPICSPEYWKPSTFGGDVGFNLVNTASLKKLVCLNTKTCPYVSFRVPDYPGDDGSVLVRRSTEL
Kind of test: Cyclooxygenase inhibition: release of 6-keto-PGF1 α from zymosan-stimulated mouse peritoneal macrophage cells. It counts as cell-based. As to conditions: 10^-5 mol/l, read-out: In vitro % inhibition effect on the release of 6-keto-PGF1 α. From the text: 5. In vitro determination of cyclooxygenase inhibition and 5-lipoxygenase inhibition.
After activation of the cell, arachidonic acid contained in cell membranes is metabolized in two ways. Leukotrienes, inter alia leukotriene C4, are formed under the action of the enzyme 5-lipoxygenase (5-LO), and prostanoids are formed under the action of the enzyme cyclooxygenase (CO). In in vitro systems, the metabolites are secreted from the cell.
To investigate the cyclooxygenase-inhibiting and the 5-lipoxygenase-inhibiting properties, the inhibitory effect of the test substances on the biosynthesis of the arachidonic acid derivatives leukotriene C4 (LTC4) and 6-ketoprostaglandin F1 α (6-keto-PGF1 α) is determined in vitro on mouse peritoneal macrophage cells. This was accomplished by determining the LTC4 and 6-keto-PGF1 α contents in a culture medium of mouse peritoneal macrophage cells by zymosan stimulation as described by Scott et al. (J. Exp. Med. 152 (1980), 324-335) and by Fradin et al. (Prostaglandins, 33 (1987), 579-589).
A cell suspension containing peritoneal cells of male mice 8-10 weeks old was obtained in a known manner. A commercially available cell culture solution (RPMI 1640 from Messrs. Gibco) was used to which heparin (I0 international units/ml) and antibiotics were added according to the recipe of Bonney et al. (Biochem. J. 176 (1978) 422-433). The cell suspension was adjusted to a cell concentration of 10^6 cells per ml and distributed uniformly on titer plates containing […] (wells). These were kept for two hours in a humidified incubator filled with air enriched with 7% CO2. Cells not adhering to the titer cell walls were then removed by washing. The remaining macrophage cells adhering to the walls were incubated for about 12 hours in a suspension medium to which 0.1% bovine serum albumin (BSA) were added. The suspension medium was then replaced by a Hanks balanced salt solution (HBSS) containing 10 mM Hepes (hydroxyethyl-piperazinoethanesulfonic acid), to which a 0.1% strength solution of the test substances in aqueous, 1% strength dimethylformamide or only the solvent had been added. After 15 minutes the arachidonic acid metabolism was stimulated by adding 10 particles of zymosan (=glycoproteinmixture, isolated from cell walls of beer yeast, Saccharomyces cerevisiae, manufactured by Sigma Chemical Co., Munich) per titer cell. After 2 hours, samples of each of the supernatant liquids were investigated for their 6-keto-PGF1 α and LTC4 contents by means of an enzyme immunoassay (EIA) carried out by the method of Pradelles et al. (Analytical Chem. 57 (1985), 1170-1173). The determination of LTC4 and the determination of 6-keto-PGF1 α were each carried out in comparison with a comparative scale on suitable dilutions of the samples (1:50 to 1:250 for the LTC4 determination and 1:250 to 1:1250 for the 6-keto-PGF1 α determination). To determine the inhibitory effect of a 10^-5 molar concentration of the compounds, the amount of reference eicosanoids was determined and the inhibitory effect was calculated from this in % inhibition compared to the measurements of the zymosan controls.

Where [1] appears, read: after 30 sec., read-out: in vitro (H1) receptor antagonism % inhibitory effect on histamine-induced contractions of the Ileum, after 30 sec.
Where [2] appears, read: after 10 min. (after washing), read-out: in vitro (H1) receptor antagonism % inhibitory effect on histamine-induced contractions of the Ileum, after 10 min.

Like-named read-outs stand apart in the source and are kept apart here.

T1 sequence (P31389 whole entry): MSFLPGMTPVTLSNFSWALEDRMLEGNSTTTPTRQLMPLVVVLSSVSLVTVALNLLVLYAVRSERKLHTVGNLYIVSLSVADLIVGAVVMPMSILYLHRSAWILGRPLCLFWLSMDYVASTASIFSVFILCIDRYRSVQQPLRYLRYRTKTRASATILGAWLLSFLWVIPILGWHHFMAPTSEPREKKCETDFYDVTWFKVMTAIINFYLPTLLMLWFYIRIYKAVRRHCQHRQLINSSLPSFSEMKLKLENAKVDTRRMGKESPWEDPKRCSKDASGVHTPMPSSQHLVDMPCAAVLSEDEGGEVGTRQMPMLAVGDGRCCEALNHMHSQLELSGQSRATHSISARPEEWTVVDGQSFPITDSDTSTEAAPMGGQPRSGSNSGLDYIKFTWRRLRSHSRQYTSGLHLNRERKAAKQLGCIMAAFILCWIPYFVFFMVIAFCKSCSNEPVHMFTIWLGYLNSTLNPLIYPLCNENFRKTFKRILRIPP

As to `Cc1ccnc(N2CCN(CCc3c(C)n4c5c(cccc35)CCC4)CC2)c1` [Example 1, 5,6-Dihydro-2-methyl-1-{2-[4-(4-methylpyridin-2-yl)piperazin-1-yl]ethyl}-4H-pyrrolo[3,2,1-ij]quinoline], the figures for the inhibition at 1 µM at histamine (H1) receptor (setting [1]) and at histamine (H1) receptor (setting [2]) were 42% and 88%, respectively. The inhibition at 10 µM on cyclooxygenase turned out to be 23%.

Regarding `Cc1ccnc(N2CCN(CCc3c(C)n4c5c(cccc35)CCC4c3ccccc3)CC2)c1` (stereo not drawn) [Example 3, 5,6-dihydro-2-methyl-4-phenyl-1-{2-[4-(4-methylpyridine-2-yl)piperazin-1-yl]-ethyl}-4H-pyrrolo[3,2,1-ij]quinoline], the results for the inhibition at 1 µM on histamine (H1) receptor (setting [1]) and at histamine (H1) receptor (setting [2]) were 15% and 57%, respectively. In addition, the inhibition at 10 µM on cyclooxygenase was 20%.

As to `Cc1ccnc(N2CCN(CCc3c(C)n4c5c(cc(Br)cc35)CCC4)CC2)c1` [Example 9, 8-Bromo-2-methyl-1-{2-[4-(4-methylpyridin-2-yl)piperazin-1-yl]ethyl}-5,6-dihydro-4H-pyrrolo[3,2,1-ij]quinoline], the figures for the inhibition at 1 µM on histamine (H1) receptor (setting [1]) and at histamine (H1) receptor (setting [2]) were 10% and 78%, respectively. Further, at cyclooxygenase, the inhibition at 10 µM stood at 19%.

For the molecule `Cc1ccnc(N2CCN(CCc3c(CO)n4c5c(cccc35)CCC4)CC2)c1` [Example 16, 5,6-dihydro-2-hydroxymethyl-1-{2-[4-(4-methylpyridin-2-yl)piperazin-1-yl]ethyl}-4H-pyrrolo[3,2,1-ij]quinoline], the inhibition at 1 µM at histamine (H1) receptor (setting [1]) is 42%; at histamine (H1) receptor (setting [2]), 55%. Besides, the inhibition at 10 µM on cyclooxygenase came out at 18%.

Consider `Cc1ccnc(N2CCN(CCc3c(C)n4c5c(cc(C(O)C(C)C)cc35)CCC4)CC2)c1` (stereo not drawn) [Example 19, 5,6-Dihydro-8-(1-hydroxy-2-methylpropyl)-2-methyl-1-{2-[4-(4-methylpyridin-2-yl)piperazin-1-yl]ethyl}-4H-pyrrolo-[3,2,1-ij]quinoline], for which the figures for the inhibition at 1 µM on histamine (H1) receptor (setting [1]) and at histamine (H1) receptor (setting [2]) were 26% and 83%, respectively. Besides, the inhibition at 10 µM at cyclooxygenase is 5%.

As for `Cc1ccnc(N2CCN(CCc3c(C)n4c5c(cc(N)cc35)CCC4)CC2)c1` [Example 20, 8-Amino-5,6-dihydro-2-methyl-1-{2-[4-(4-methylpyridin-2-yl)piperazin-1-yl]ethyl}-4H-pyrrolo[3,2,1-ij]quinoline], the inhibition at 1 µM on histamine (H1) receptor (setting [1]) amounted to 27%; at histamine (H1) receptor (setting [2]) it was 77%. In addition, the inhibition at 10 µM on cyclooxygenase was 42%.

Turning to `Cc1ccnc(N2CCN(CCc3c(C)n4c5c(cc(CC(C)C)cc35)CCC4)CC2)c1` [Example 21, 5,6-Dihydro-2-methyl-8-(2-methylpropyl)-1-{2-[4-(4-methylpyridin-2-yl)piperazin-1-yl]ethyl}-4H-pyrrolo[3,2,1-ij]quinoline], the inhibition at 1 µM amounted to 9% on histamine (H1) receptor (setting [1]) and 56% on histamine (H1) receptor (setting [2]). Besides, at cyclooxygenase, the inhibition at 10 µM came to 64%.

Regarding `CCCCC1CCc2cc(C(=O)C(C)C)cc3c(CCN4CCN(c5cc(C)ccn5)CC4)c(C)n1c23` (stereo not drawn) [Example 23, 4-n-Butyl-5,6-dihydro-8-(2-methyl-1-oxopropyl)-2-methyl-1-{2-[4-(4-methylpyridin-2-yl)piperazin-1-yl]ethyl}-4H-pyrrolo[3,2,1-ij]quinoline], the figures for the inhibition at 1 µM on histamine (H1) receptor (setting [1]) and on histamine (H1) receptor (setting [2]) were 7% and 38%, respectively. For the same molecule, on cyclooxygenase, the inhibition at 10 µM was 43%.

`Cc1ccnc(N2CCN(CCc3c(C)n4c5c(cc(NC(=O)c6ccccc6)cc35)CCC4)CC2)c1` [Example 25, 8-Benzoylamino-5,6-dihydro-2-methyl-1-{2-[4-(4-methylpyridin-2-yl)piperazin-1-yl]-ethyl}-4H-pyrrolo[3,2,1-ij]quinoline]: the inhibition at 1 µM at histamine (H1) receptor (setting [1]) worked out at 10%; at histamine (H1) receptor (setting [2]), 77%. For the same molecule, the inhibition at 10 µM on cyclooxygenase was 24%.

For `CC(C)=Cc1cc2c3c(c1)c(CCN1CCN(c4cc(C)ccn4)CC1)c(C)n3CCC2` [Example 26, 5,6-Dihydro-2-methyl-8-(2-methylprop-1-enyl)-1-{2-[4-(4-methylpyridin-2-yl)piperazin-1-yl]ethyl}-4H-pyrrolo[3,2,1-ij]quinoline], the inhibition at 1 µM came out at 15% at histamine (H1) receptor (setting [1]) and 42% at histamine (H1) receptor (setting [2]). The inhibition at 10 µM at cyclooxygenase amounted to 68%.

Consider `Cc1ccnc(N2CCN(CCc3c(C)n4c5c(cc(C(=O)C(C)C)cc35)CCC4)CC2)c1` [Example 27, 5,6-dihydro-2-methyl-8-(2-methyl-1-oxopropyl)-1-{2-[4-(4-methylpyridin-2-yl)piperazin-1-yl]ethyl}-4H-pyrrolo-[3,2,1-ij]quinoline], for which the figures for the inhibition at 1 µM at histamine (H1) receptor (setting [1]) and at histamine (H1) receptor (setting [2]) were 33% and 92%, respectively. Also, the inhibition at 10 µM at cyclooxygenase came to 10%.

As for `Cc1ccnc(N2CCN(CCc3c(C)n4c5c(cccc35)CC4C)CC2)c1` (stereo not drawn) [Example 33], the inhibition at 1 µM on histamine (H1) receptor (setting [1]) was found to be 45%; at histamine (H1) receptor (setting [2]), 96%. Further, the inhibition at 10 µM at cyclooxygenase was 21%.

Turning to `Cc1ccnc(N2CCN(CCc3c(C)n4c5c(ccc(Cl)c35)OCC4)CC2)c1` [Example 35], the results for the inhibition at 1 µM on histamine (H1) receptor (setting [1]) and on histamine (H1) receptor (setting [2]) were 25% and 78%, respectively. Moreover, the inhibition at 10 µM on cyclooxygenase amounted to 51%.

Turning to `Cc1c(CCN2CCN(c3ccccn3)CC2)c2cccc3c2n1CCC3` [Example 37], the values for the inhibition at 1 µM at histamine (H1) receptor (setting [1]) and on histamine (H1) receptor (setting [2]) were 24% and 61%, respectively. Moreover, the inhibition at 10 µM on cyclooxygenase is 32%.

Take `Cc1ccc(N2CCN(CCc3c(C)n4c5c(cccc35)CCC4)CC2)nc1` [Example 42]: the inhibition at 1 µM on histamine (H1) receptor (setting [1]) amounted to 52%; on histamine (H1) receptor (setting [2]), 54%. The inhibition at 10 µM at cyclooxygenase came to 76%.

With `Cc1c(CCN2CCN(c3ccc(Br)cn3)CC2)c2cccc3c2n1CCC3` [Example 43], the inhibition at 1 µM on histamine (H1) receptor (setting [1]) was determined as 11%; at histamine (H1) receptor (setting [2]) it was 23%. The inhibition at 10 µM at cyclooxygenase came out at 57%.

In the case of `C=CCCC1CCc2cccc3c(CCN4CCN(c5cc(C)ccn5)CC4)c(C)n1c23` (stereo not drawn) [Example 62], the inhibition at 1 µM is 13% at histamine (H1) receptor (setting [1]) and 72% at histamine (H1) receptor (setting [2]). Besides, at cyclooxygenase, the inhibition at 10 µM was found to be 64%.

Regarding `CCCCC1CCc2cc(OC)cc3c(CCN4CCN(c5cc(C)ccn5)CC4)c(C)n1c23` (stereo not drawn) [Example 63], the values for the inhibition at 1 µM at histamine (H1) receptor (setting [1]) and on histamine (H1) receptor (setting [2]) were 17% and 67%, respectively. Further, the inhibition at 10 µM at cyclooxygenase was 38%.

In the case of `Cc1ccnc(N2CCN(CC(O)c3c(C4CCCCC4)n4c5c(cccc35)CCC4)CC2)c1` (stereo not drawn) [Example 85], at cyclooxygenase, the inhibition at 10 µM is 52%.

As to `Cc1ccnc(N2CCN(CCc3c(C)n4c5c(cccc35)CCC4C3CCCCC3)CC2)c1` (stereo not drawn) [Example 87], at cyclooxygenase, the inhibition at 10 µM amounted to 20%.

`Cc1ccnc(N2CCN(CCc3c(C)n4c5c(c(C(O)C(C)C)ccc35)SCC4)CC2)c1` (stereo not drawn) [Example 89]: the inhibition at 10 µM on cyclooxygenase was 32%.

The values above are taken from patent US5324725A, “7-fused 2-(piperazinoalkyl) indole derivatives, intermediates and compositions thereof” (Kali-Chemie Pharma GmbH, priority 1991, dated 1994).
